Here are results for two substances from US20110117168A1, “METHODS AND COMPOSITIONS FOR SOFT TISSUE REPAIR” (AFFINERGY, INC., priority 2009, published 2011).

One assay deals with human MSCs. Put plainly: Capture of MSCs from a mixed cell population with peptide on CELLECTION magnetic beads. The note with it: starting mixture 38% IM9, 56% U937, 4% MSC. It counts as cell-based. An excerpt:
In this experiment, biotinylated cell binding peptide, SEQ ID NO: 16, was attached to CELLECTION magnetic beads. The CELLECTION beads have streptavidin coupled to a magnetic particle through a DNA linker. Three different cell types, human MSCs, IM-9, and U937 cells were differentially labeled with […] dye and mixed in a ratio such that the MSCs represented ˜4% of the starting cell mixture (the percentage of each cell type in the starting mixture was 38% IM9, 56% U937, and 4% MSC). The cell binding peptide, SEQ ID NO: 16, was biotinylated as described herein at Example 2, as was a general cell binding peptide for use as a control peptide in the experiment. Magnetic particles with no peptide attached, as well as magnetic beads having attached either the cell binding peptide, SEQ ID NO: 16, or the control peptide were tested for their ability to capture human MSCs. The starting cell mixture was incubated with magnetic beads having either attached peptide or no peptide, the beads were washed, and the captured cells were released from the beads by DNase treatment. The cells were measured by flow cytometry histograms shown in 18A-18C. The magnetic beads without peptide captured little or no cells (FIG. 18B). The magnetic beads with attached cell binding peptide SEQ ID NO: 16 captured a cell population that was 96% MSCs (FIG. 18C).

In assay [1] the test system is HUVECs. The assay is described as follows: HUVEC capture and retention on peptide-modified collagen coated 96-well plates ([…]-GLO). It counts as cell-based, human. As for the experimental part: After washing, 10,000 HUVECs were added per well in serum free medium for 30 min at 37° C. The plates were washed 3 times with PBS containing 2% FBS, and captured cells were detected with […]-GLO (INVITROGEN) using a luminometer and a standard curve. […] For FIG. 21B, the collagen was extracted in gel loading buffer, separated by PAGE, and total protein was stained with SIMPLYBLUE (INVITROGEN). […] Plates with captured HUVECs were prepared as described in FIG. 20A. […]

In assay [2] the test system is HUVECs. The assay is described as follows: Endothelial cell phenotype and anti-thrombogenic protein expression on peptide-modified collagen. The format is cell-based, human. The note with it: HUVECs cultured 24 hours; t-PA and 6-keto Prostaglandin F1a ELISA, flow cytometry. As for the experimental part: Once immobilized on a vascular graft, endothelial cells must retain their characteristic properties of promoting endothelialization. Therefore, the phenotype, viability, and anti-thrombogenic protein expression profiles were evaluated for endothelial cells in the presence of collagen modified with the endothelial cell binding peptide SEQ ID NO: 4 (generated according to Example 7 using BS^3 reagent). […] Specifically, HUVECs were plated on SEQ ID NO: 4 peptide-modified collagen, collagen with 10 μM free SEQ ID NO: 4 peptide or collagen alone for 24 hours. Flow cytometry was performed using a BD […], and ELISAs were performed according to manufacturers instructions. (FIGS. 22A & 22B). Tissue-type Plasminogen Activator (t-PA) and 6-keto Prostaglandin F1a protein expression levels secreted in this assay are aligned with other reports on cultured HUVECS (Kimura and Yokoi-Hayashi, Biochim Biophys Acta, 1996, 1310:1-4; Merhi-Soussi et al., J Leukoc Biol, 2000, 68:881-9).

In assay [3] the test system is HUVECs. The assay is described as follows: HUVEC colonization and proliferation on peptide-modified collagen. It counts as cell-based, human. To be noted: 7,000 HUVECs, 48 hours at 37° C. As to the method: In 96-well plates 7,000 HUVECs were plated on peptide-modified soluble collagen or unmodified collagen for 48 hours at 37° C. Plates were removed and washed and the remaining attached cells were detected using […]-GLO on a luminometer.

The subject of another assay is ECFCs. The assay is described as follows: Capture of ECFCs in flow on collagen-coated coverslips (parallel plate flow chamber). The note with it: 2×10^6 ECFC circulated for 2 h at 37° C. It counts as cell-based, human. As to the method:
The ability of the collagen modified with endothelial cell binding peptide SEQ ID NO: 4 to capture ECFCs in flow was analyzed as follows. Glass coverslips were coated with unmodified collagen or cell binding peptide modified-collagen and mounted in a polycarbonate parallel plate flow chamber. PBS/10% FBS was circulated through a closed 150 ml system to block the coverslips. Approximately 2×10^6 ECFC were injected into the system and were circulated for 2 h at 37° C. Coverslips were washed in PBS to remove loosely adhering cells, the remaining cells on the coverslips were lysed in CELLTITERGLO (INVITROGEN, CA), and the cells enumerated by luminescence against a standard curve.

The test system of assay [4] is HUVECs. The assay is described as follows: Retention of HUVECs under shear stress on collagen-coated cover-slips. The format is cell-based, human. As for the experimental part: The ability of the collagen modified with endothelial cell binding peptide SEQ ID NO: 4 to retain HUVECs under shear stress was analyzed as follows. Glass cover-slips were coated with peptide conjugated collagen or unmodified collagen and seeded with HUVECs. Coverslips were secured in a polycarbonate slide with six 1 cm diameter wells enabling simultaneous testing of materials. A closed loop peristaltic pump was used to expose the samples to flow conditions for 30 minutes at laminar flow rates up to 12 dynes/cm^2 in PBS containing 2% FBS. The number of cells retained on the cover slip was determined using […]-GLO (INVITROGEN) and a luminometer.

A further assay has as its system human dermal fibroblasts. The assay is described as follows: Fibroblast binding to peptide-modified collagen coated plates ([…]-GLO). It counts as cell-based. As for the experimental part: The experiment was performed according to the following procedure. Cell-binding peptide (SEQ ID NO: 4) was covalently attached to soluble collagen as described herein at Example 7. 96-well plates were coated with various amounts of unmodified or the peptide-modified collagen (177 μmol peptide/g collagen) over night at 4° C. Unbound collagen was removed and the plates were blocked for 1 h. After washing, 5,000 human dermal fibroblasts were added per well in serum-free medium for 30 min at 37° C. The plates were washed, and bound cells were detected with […]-GLO (PROMEGA) using a luminometer. At 0.0025 μg collagen, fibroblast binding was increased 11-fold for the peptide-modified collagen compared to unmodified collagen (see FIG. 28).

Ends that are not written are not given here. spacer = not defined here

“SSFRFGPLGTWNYPSTDNAE (also: biotin (position not given here)) [SEQ ID NO: 16, tested biotinylated]”: in the assay on human MSCs, the “MSCs in captured cell population” value was 96%.

For the substance “peptide-modified collagen: soluble bovine type I collagen with SEQ ID NO: 4 covalently attached via BS^3 crosslinking reagent (SSFWDVCQGDGTCYGGGSR-{spacer-Lys}; cysteine pairing not given here; reading uncertain; also: conjugated to soluble bovine type I collagen via BS3 (site not given here))”, the “HUVECs retained versus unmodified collagen after agitation” value in the assay with HUVECs [1] (1 hour with agitation in PBS containing 2% FBS) stood at 7 fold. Moreover, in the assay on HUVECs [1] (10,000 HUVECs per well, serum free medium, 30 min at 37° C.), the “increase in cell retention over unmodified collagen” value was 3 fold. Moreover, the “endothelial cell phenotype and anti-thrombogenic protein secretion” value in the assay on HUVECs [2] was “maintained their endothelial cell phenotype and their ability to secrete anti-thrombogenic proteins”. Moreover, the “HUVEC colonization and proliferation versus unmodified collagen” value in the assay on HUVECs [3] was “colonize and proliferate equally”. Besides, in the assay with ECFCs, the “cells captured in flow versus unmodified collagen” value is listed as “about 20 fold”. Also, the “cells captured versus unmodified collagen” value with HUVECs [4] (HUVECs, 30 minutes, laminar flow up to 12 dynes/cm^2) is given as “about 3 fold”. Further, in the assay with HUVECs [4] (laminar flow up to 12 dynes/cm^2, 30 minutes), the “effect of shear stress on cell capture” value is recorded as “did not significantly affect cell capture”. Also, the “fibroblast binding increase compared to unmodified collagen” value with human dermal fibroblasts (0.0025 μg collagen, 5,000 human dermal fibroblasts, 30 min at 37° C.) is on record as 11 fold. Moreover, in the assay with human dermal fibroblasts (data not shown), the “fibroblast binding at higher concentrations of collagen” value is “Increased cell binding”.
